The numbers were not newly measured in US20130136704A1, “P-MENTHANE-3,8-DIOL ISOMER MIXTURE, COMPOSITION COMPRISING THE SAME, AND PRODUCTS COMPRISING THE MIXTURE OR COMPOSITION” (TAKASAGO INTERNATIONAL CORPORATION, priority 2011, published 2013), which cites them from elsewhere.

Bounds are passed on as bounds.

The conditions of this data set: Patent Literature 2.

On to `CC1CCC(C(C)(C)O)C(O)C1` (stereo not shown) [p-menthane-3,8-diol], for which the “concentration of p-menthane-3,8-diol in solution at which it is in a supersaturation state and crystals precipitate” value is recorded as not below 60%.
